For one compound, koff results are on record in BindingDB's records for PubMed 34043359 (China Pharmaceutical University, 2021).

In the assay the target is Signal transducer and activator of transcription 3 (Homo sapiens, UniProt P40763). Nature of the assay: Binding affinity to recombinant GST tagged STAT3 (unknown origin) assessed as dissociation constant.
Chain of Signal transducer and activator of transcription 3 (P40763 whole entry): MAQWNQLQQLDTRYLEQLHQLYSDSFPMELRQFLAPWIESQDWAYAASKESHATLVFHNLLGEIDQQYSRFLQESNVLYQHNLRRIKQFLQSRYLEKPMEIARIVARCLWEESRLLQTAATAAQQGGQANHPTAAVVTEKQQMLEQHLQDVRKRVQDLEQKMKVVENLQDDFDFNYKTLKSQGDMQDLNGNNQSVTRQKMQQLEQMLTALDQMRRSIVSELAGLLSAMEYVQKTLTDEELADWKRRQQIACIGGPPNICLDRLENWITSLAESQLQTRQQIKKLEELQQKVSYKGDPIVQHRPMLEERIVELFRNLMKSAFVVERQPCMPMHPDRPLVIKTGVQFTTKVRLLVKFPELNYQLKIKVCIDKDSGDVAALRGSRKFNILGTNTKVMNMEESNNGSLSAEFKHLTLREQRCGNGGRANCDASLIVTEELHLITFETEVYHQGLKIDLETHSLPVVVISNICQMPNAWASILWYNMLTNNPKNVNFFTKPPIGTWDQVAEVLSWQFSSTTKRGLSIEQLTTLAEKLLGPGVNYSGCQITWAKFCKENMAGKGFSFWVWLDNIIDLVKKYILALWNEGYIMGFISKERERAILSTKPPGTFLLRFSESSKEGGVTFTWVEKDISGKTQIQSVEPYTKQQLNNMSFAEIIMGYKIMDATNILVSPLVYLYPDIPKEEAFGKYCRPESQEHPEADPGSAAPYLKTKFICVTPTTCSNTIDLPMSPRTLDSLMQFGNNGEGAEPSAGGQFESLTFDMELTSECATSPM

For orientation: koff means a measure of how fast the partners let go of each other. Regarding `COc1cc(/C=C/c2ccc(OCCCCCCC(=O)NO)cc2)cc(OC)c1`, the koff came to 0.0152 s⁻¹.
